Assay results published in ChEMBL document CHEMBL4483862, “Open-source discovery of chemical leads for next-generation chemoprotective antimalarials” (2018).

Test system: Plasmodium berghei
Experiment: Luciferase/luciferin-expressing antifolate-resistant parasites were used to infect a culture of HepG2 cells that were pre-incubated with compounds. Infected hepatocytes emit light due to the luciferase reaction. Assay results are presented as the percent inhibition of light emission compared to control. […]
Type: functional
Settings: sporozoite; for IC90: read-out: LUCIFERASE INFECTION ASSAY - IC90
[1] = read-out: LUCIFERASE INFECTION ASSAY - IC50

SMILES	IC90 [µM]	other results
NS(=O)(=O)c1ccc(CCNc2nn3c(-c4cccc(OC(F)(F)F)c4)cnc3s2)cc1	> 6.83	IC50 (FFLUC_HILL_SLOPE 3.32, FFLUC_R_SQUARED 0.88, HEPG2TOX_HILL_SLOPE 6.82, HEPG2TOX_R_SQUARED 0.258, PBLUC_HILL_SLOPE 3.52, PBLUC_R_SQUARED 0.409, read-out: LUCIFERASE INFECTION ASSAY - IC50): 4 µM
CCCc1cc(C(=O)Nc2ccc(OC(F)F)cc2)sc1C	> 10	IC50 (PBLUC_HILL_SLOPE 2.93, PBLUC_R_SQUARED 0.424, read-out: LUCIFERASE INFECTION ASSAY - IC50): 8.81 µM
Cc1ccc(N2CC(C(=O)Nc3cc(C4CC4)n[nH]3)CC2=O)cc1 (centres undefined)	2.23	IC50 (HEPG2TOX_HILL_SLOPE 2.65, HEPG2TOX_R_SQUARED 0.943, PBLUC_HILL_SLOPE 2.62, PBLUC_R_SQUARED 0.892, read-out: LUCIFERASE INFECTION ASSAY - IC50): 0.963 µM
Cc1cc(NC(=O)N2CCN(Cc3sc4ccccc4c3Cl)CC2)no1	1.17	IC50 (PBLUC_HILL_SLOPE 1.04, PBLUC_R_SQUARED 0.858, read-out: LUCIFERASE INFECTION ASSAY - IC50): 0.141 µM
C=CCN(c1ccc(F)cc1)S(=O)(=O)c1cc(C(=O)OCC(=O)C23CC4CC(CC(C4)C2)C3)ccc1Cl	> 10	IC50 (FFLUC_HILL_SLOPE 7.93, FFLUC_R_SQUARED 0.0643, HEPG2TOX_HILL_SLOPE 7, HEPG2TOX_R_SQUARED 0.225, PBLUC_HILL_SLOPE 4.62, PBLUC_R_SQUARED 0.186, read-out: LUCIFERASE INFECTION ASSAY - IC50): 6.94 µM
COc1ccc(C2CC(c3ccccc3)=Nc3ccccc3S2)cc1 (centres undefined)	> 9.55	IC50 (PBLUC_HILL_SLOPE 6.73, PBLUC_R_SQUARED 0.0739, read-out: LUCIFERASE INFECTION ASSAY - IC50): > 9.55 µM
CCN1C(=O)N(Cc2cccc(OC)c2)C(=O)C12CCN(Cc1cnc(-c3ccccc3)s1)CC2	> 6.73	IC50 (HEPG2TOX_HILL_SLOPE 2.07, HEPG2TOX_R_SQUARED 0.932, PBLUC_HILL_SLOPE 9.26, PBLUC_R_SQUARED 0.304, read-out: LUCIFERASE INFECTION ASSAY - IC50): 5.74 µM
O=C(Nc1ncc(Cc2ccccc2)s1)c1ccc2nc[nH]c2c1	> 10	IC50 (HEPG2TOX_HILL_SLOPE 3.11, HEPG2TOX_R_SQUARED 0.961, PBLUC_HILL_SLOPE 3.02, PBLUC_R_SQUARED 0.464, read-out: LUCIFERASE INFECTION ASSAY - IC50): 5.71 µM
Cc1ccc(-c2nc3c(s2)CN(C(=O)c2ccco2)CC3)cc1	3.19	IC50 (PBLUC_HILL_SLOPE 23.5, PBLUC_R_SQUARED 0.61, read-out: LUCIFERASE INFECTION ASSAY - IC50): 2.9 µM
O=C(C1CCCN(c2cnccn2)C1)N1CCN(C(c2ccc(F)cc2)c2ccc(F)cc2)CC1 (centres undefined)	> 10	IC50 (PBLUC_HILL_SLOPE 27.2, PBLUC_R_SQUARED 0.0353, read-out: LUCIFERASE INFECTION ASSAY - IC50): 9.76 µM
CC(Sc1nc2ccccc2c(=O)n1-c1ccccc1F)c1nnc(-c2cccs2)o1 (centres undefined)	> 10	IC50 (HEPG2TOX_HILL_SLOPE 12.8, HEPG2TOX_R_SQUARED 0.22, PBLUC_HILL_SLOPE 16.4, PBLUC_R_SQUARED 0.485, read-out: LUCIFERASE INFECTION ASSAY - IC50): 8.88 µM
CC(C)(C)n1ncc(C(=O)NCCOc2ccccc2)c1C(F)(F)F	> 10	IC50 (PBLUC_HILL_SLOPE 0.7, PBLUC_R_SQUARED 0.775, read-out: LUCIFERASE INFECTION ASSAY - IC50): 0.591 µM
CN(C)c1ccccc1-c1cn2c(-c3ccc(CO)cc3)cnc2cn1	> 9.58	IC50 (HEPG2TOX_HILL_SLOPE 4.17, HEPG2TOX_R_SQUARED 0.686, PBLUC_HILL_SLOPE 6.79, PBLUC_R_SQUARED 0.489, read-out: LUCIFERASE INFECTION ASSAY - IC50): 8.57 µM
COc1nc(-c2ccccc2)cc(-c2ccc3c(c2)OCO3)c1C#N	5.77	IC50 (HEPG2TOX_HILL_SLOPE 1.05, HEPG2TOX_R_SQUARED 0.733, PBLUC_HILL_SLOPE 1.42, PBLUC_R_SQUARED 0.508, read-out: LUCIFERASE INFECTION ASSAY - IC50): 1.23 µM
Clc1ccc(/N=C/c2c(Sc3ccc(Cl)cc3)nc3sccn23)cc1	5.29	IC50 (FFLUC_HILL_SLOPE 12.3, FFLUC_R_SQUARED 0.518, HEPG2TOX_HILL_SLOPE 2.77, HEPG2TOX_R_SQUARED 0.964, PBLUC_HILL_SLOPE 5.31, PBLUC_R_SQUARED 0.509, read-out: LUCIFERASE INFECTION ASSAY - IC50): 3.5 µM
Clc1cccc(-c2cn3c(-c4ccncc4)cnc3cn2)c1	> 10.8	IC50 (FFLUC_HILL_SLOPE 4.91, FFLUC_R_SQUARED 0.112, HEPG2TOX_HILL_SLOPE 0.251, HEPG2TOX_R_SQUARED 0.199, PBLUC_HILL_SLOPE 3.54, PBLUC_R_SQUARED 0.544, read-out: LUCIFERASE INFECTION ASSAY - IC50): 6.34 µM
CCOC(=O)c1ccc(NC(=S)N/N=C/c2ccccc2O)cc1	5.71	IC50 (HEPG2TOX_HILL_SLOPE 1.84, HEPG2TOX_R_SQUARED 0.879, PBLUC_HILL_SLOPE 113, PBLUC_R_SQUARED 0.459, read-out: LUCIFERASE INFECTION ASSAY - IC50): 5.6 µM
O=C(c1ccc(Cn2cccn2)cc1)N(C/C=C/c1ccccc1)c1ccc2c(c1)OCCO2	5.09	IC50 (PBLUC_HILL_SLOPE 14.4, PBLUC_R_SQUARED 0.81, read-out: LUCIFERASE INFECTION ASSAY - IC50): 4.37 µM
CC(C)(C)c1ccc(OCC(=O)Nc2cnn(C(C)(C)C(=O)NCc3ccccc3)c2)cc1	> 10	IC50 [1]: > 10 µM

SMILES	IC90 [µM]	other results
CCS(=O)(=O)c1ccc2oc(NC(=O)C3CCC3)nc2c1	> 10	IC50 [1]: > 10 µM
Cc1ccc(-n2c(-c3ccc(Cl)c(C)c3)csc2=N)c(C)c1	> 9.03	IC50 [1]: > 9.03 µM
CCOC(=O)C1(C)CCN1C(=O)c1cc(OC)c(OC)c(OC)c1 (centres undefined)	> 9.78	IC50 [1]: > 9.78 µM
COc1ccc(NC(=O)c2ccoc2)cc1S(=O)(=O)Nc1ccc(Br)cc1	1.62	IC50 (HEPG2TOX_HILL_SLOPE 1.42, HEPG2TOX_R_SQUARED 0.956, PBLUC_HILL_SLOPE 2.25, PBLUC_R_SQUARED 0.81, read-out: LUCIFERASE INFECTION ASSAY - IC50): 0.611 µM
Cc1ccccc1-c1cc2c(cn1)nc(NCc1ccccc1F)n2C	8.53	IC50 (HEPG2TOX_HILL_SLOPE 2.16, HEPG2TOX_R_SQUARED 0.829, PBLUC_HILL_SLOPE 2.78, PBLUC_R_SQUARED 0.577, read-out: LUCIFERASE INFECTION ASSAY - IC50): 3.87 µM
Cc1cc(C(=O)Cn2cnc3ccc([N+](=O)[O-])cc3c2=O)c(C)n1CC1COc2ccccc2O1 (centres undefined)	> 10	IC50 [1]: > 10 µM
Cc1cc(C)cc(-n2c(C)cc(C(=O)CNC(=O)NCc3ccccc3)c2C)c1	3.27	IC50 (HEPG2TOX_HILL_SLOPE 1.59, HEPG2TOX_R_SQUARED 0.958, PBLUC_HILL_SLOPE 2.43, PBLUC_R_SQUARED 0.455, read-out: LUCIFERASE INFECTION ASSAY - IC50): 1.32 µM
CCc1cccc(Nc2nc3ccccc3s2)c1	> 10	IC50 (FFLUC_HILL_SLOPE 1.67, FFLUC_R_SQUARED 0.624, read-out: LUCIFERASE INFECTION ASSAY - IC50): > 10 µM
FC(F)(F)Oc1ccc(Nc2nnc(Sc3ncnc4ccsc34)s2)cc1	> 10	IC50 (PBLUC_HILL_SLOPE 4.22, PBLUC_R_SQUARED 0.601, read-out: LUCIFERASE INFECTION ASSAY - IC50): 6.4 µM
CCc1nc(CN2CC=C(c3c[nH]c4ccccc34)CC2)cs1	7.32	IC50 (HEPG2TOX_HILL_SLOPE 12.8, HEPG2TOX_R_SQUARED 0.446, PBLUC_HILL_SLOPE 9.90, 7.64, PBLUC_R_SQUARED 0.0237, 0.266, read-out: LUCIFERASE INFECTION ASSAY - IC50): 5.75 µM
COc1cc(-c2ccc3ncc(-c4cccc(OC(F)(F)F)c4)n3n2)cc(OC)c1OC	3.72	IC50 (PBLUC_HILL_SLOPE 15.5, PBLUC_R_SQUARED 0.302, read-out: LUCIFERASE INFECTION ASSAY - IC50): 3.23 µM
Cc1nc(-c2ccccc2)sc1C(=O)OC(C)C(=O)N1CCNC1=O (centres undefined)	> 10	IC50 [1]: > 10 µM
OCc1ccccc1-c1cn2c(-c3ccc4ncccc4c3)cnc2cn1	0.468	IC50 (HEPG2TOX_HILL_SLOPE 0.72, HEPG2TOX_R_SQUARED 0.902, PBLUC_HILL_SLOPE 1.49, PBLUC_R_SQUARED 0.863, read-out: LUCIFERASE INFECTION ASSAY - IC50): 0.107 µM
CC(C)CCNC(=O)NC(=O)CSc1nn(-c2ccc(F)cc2)c(=S)s1	> 10	IC50 [1]: > 10 µM
COc1ccc(C(C)(O)c2nc(-c3ccccc3C)cs2)cc1 (centres undefined)	3.04	IC50 (HEPG2TOX_HILL_SLOPE 3.12, HEPG2TOX_R_SQUARED 0.895, PBLUC_HILL_SLOPE 4.56, PBLUC_R_SQUARED 0.531, read-out: LUCIFERASE INFECTION ASSAY - IC50): 1.88 µM
O=C(Nc1ccc(OC(F)(F)F)cc1)c1c(-c2ccccc2)nnc2ccccc12	> 8.06	IC50 (FFLUC_HILL_SLOPE 2.82, FFLUC_R_SQUARED 0.654, HEPG2TOX_HILL_SLOPE 0.161, HEPG2TOX_R_SQUARED 0.349, PBLUC_HILL_SLOPE 0.343, PBLUC_R_SQUARED 0.11, read-out: LUCIFERASE INFECTION ASSAY - IC50): > 8.06 µM
CC(C)c1nc(N2CCN(C)CC2)c(C#N)c2c1CCCC2	> 11.1	IC50 (FFLUC_HILL_SLOPE 0.534, FFLUC_R_SQUARED 0.16, read-out: LUCIFERASE INFECTION ASSAY - IC50): > 11.1 µM
Cc1sc2nc(-c3cccnc3)nc(N3CCOCC3)c2c1-c1ccccc1	9.9	IC50 (FFLUC_HILL_SLOPE 7.85, FFLUC_R_SQUARED 0.0779, PBLUC_HILL_SLOPE 15.6, PBLUC_R_SQUARED 0.278, read-out: LUCIFERASE INFECTION ASSAY - IC50): 8.61 µM
